# Patent US8420626B2, “Arene connected polyamine macrocyclic derivatives, preparation methods and pharmaceutical uses thereof” (Beijing Molecule Science and Technology Co., Ltd., priority 2007, dated 2013)
# Structures can show the parent of a compound that is named as a salt. Where two headings read alike, the source gives them in different places.
# Columns and labels:
# Assay type in all cases: cell-based
# Cytotoxicity (XTT assay) = conditions: half toxic concentration, incubation 4 days at 37° C.
# Procedure: To 100 μl solution per compound on 96 wells cultivation plate at a certain concentration was added the same volume of cells (5×10^5/ml). Incubation was performed at 37° C. for 4 days. To the resultant were added 50 μl XTT solution (1 mg/ml) and 0.02 nM PMS. After the incubation was performed for 4 hours, the absorption was detected at 450 nm by means of ELISA detector. The CC50 (half toxic concentration) value was calculated by Calcusyn software provided by Sloan-Kettering Cancer Center (New York).
# (§1) The inhibition activity (IC50) of pathological effect (CPE) and cytotoxicity (CC50) of p24 antigens and cells of HIV-1 of the compounds of part of examples were shown as follows: […]
# p24 antigens of HIV-1 = assay: Anti-HIV activity: inhibition of p24 antigen (ELISA)
# Procedure: (§2) Per well of polystyrene plate (Immulon IB, Dynex Technology, Chantilly, Va.) was applied with HIV IG (a buffer of 0.085 M sodium carbonate and sodium bicarbonate, pH=9.6), stood at 4° C. over night, washed with PBS-T buffer (0.01 M PBS contains 0.05% Tween-20). The reaction was […] with PBS containing 1% skimmed milk (Bio-Rad Inc., Hercules, Calif.). A virus dissolved product was added to the wells, incubated at 37° C. for 1 hour, and washed. To the washed wells were added anti-P24 mAb (183-12H-5C), biotin labeled antimouse IgG1 (Santa Cruz Biotech., Santa Cruz, Calif.), SA-HRP and TMB successively. The reaction was terminated with 1N H2SO4. The absorption was detected at 450 nm by means of ELISA detector (Ultra 384, Tecan). Recombination protein p24 (US Biological, Swampscott, Mass.) was considered when the response curve of standard dosage was established. The inhibition activity IC50 (half inhibition concentration) values of p24 protein and (cell pathological effect) CPE were calculated by Calcusyn software provided by Sloan-Kettering Cancer Center (New York).
# as §1
# HIV-1 = assay: Anti-HIV activity: inhibition of cell pathological effect (CPE); conditions: Human immunodeficiency virus 1; inhibition of cell pathological effect of HIV-1
# Procedure: as §2, §1
# [1] = Human immunodeficiency virus 1, inhibition of HIV-1 p24 antigen, ELISA at 450 nm, read-out: IC50 (μM) p24
Compound,CC50 at 4 days (Cytotoxicity (XTT assay)) [µM],IC50 (p24 antigens of HIV-1; [1]) [µM],IC50 (HIV-1) [µM],"IC50 (p24 antigens of HIV-1; Human immunodeficiency virus 1, read-out: IC50 (μM) p24) [µM]"
"c1ccc(C(c2cccc(CN3CCCNCCNCCCNCC3)c2)c2cccc(CN3CCCNCCNCCCNCC3)c2)cc1 [Example 1, 3,3′-bis[(1,4,8,11-tetraazacyclotetradecan-1-yl)-methyl]-1,1′,1″-triphenylmethane octahydrobromide dihydrate]",322 ± 7.13,0.13 ± 0.02,0.41 ± 0.11,–
"Cc1ccc(C(c2cccc(CN3CCCNCCNCCCNCC3)c2)c2cccc(CN3CCCNCCNCCCNCC3)c2)cc1 [Example 2, 3,3′-bis[(1,4,8,11-tetraazacyclotetradecan-1-yl)-methyl]-4″-methyl-1,1′,1″-triphenylmethane octahydrobromide dihydrate]",285 ± 18.8,0.17 ± 0.08,0.48 ± 0.31,–
"Brc1ccc(C(c2cccc(CN3CCCNCCNCCCNCC3)c2)c2cccc(CN3CCCNCCNCCCNCC3)c2)cc1 [Example 3, 3,3′-bis[(1,4,8,11-tetraazacyclotetradecan-1-yl)-methyl]-4″-bromo-1,1′,1″-triphenylmethane octahydrobromide dihydrate]",161 ± 4.23,0.13 ± 0.01,0.08 ± 0.04,–
"Fc1ccc(C(c2cccc(CN3CCCNCCNCCCNCC3)c2)c2cccc(CN3CCCNCCNCCCNCC3)c2)cc1 [Example 4, 3,3′-bis[(1,4,8,11-tetraazacyclotetradecan-1-yl)-methyl]-4″-fluoro-1,1′,1″-triphenylmethane octahydrobromide dihydrate]",367 ± 54,0.32 ± 0.02,0.42 ± 0.06,–
"Clc1cccc(C(c2cccc(CN3CCCNCCNCCCNCC3)c2)c2cccc(CN3CCCNCCNCCCNCC3)c2)c1 [Example 5, 3,3′-bis[(1,4,8,11-tetraazacyclotetradecan-1-yl)-methyl]-3″-chloro-1,1′,1″-triphenylmethane octahydrobromide dihydrate]",162 ± 2.69,0.35 ± 0.04,0.23 ± 0.01,–
"c1ccc(C(c2cccc(CN3CCCNCCNCCCNCC3)c2)c2cccc(CN3CCCNCCNCCCNCC3)c2)nc1 [Example 6, 2-{[3,3′-bis[(1,4,8,11-tetraazacyclotetradecan-1-yl)-methyl]-1,1′yl]-diphenyl}methylenepyridyl octahydrobromide dihydrate]",377 ± 34.4,0.16 ± 0.04,0.55 ± 0.16,–
"c1ccc(C(c2ccc(CN3CCCNCCNCCCNCC3)cc2)c2ccc(CN3CCCNCCNCCCNCC3)cc2)cc1 [Example 7, 4,4′-bis[(1,4,8,11-tetraazacyclotetradecan-1-yl)-methyl]-1,1′,1″-triphenylmethane octahydrobromide dihydrate]",101 ± 1.05,0.98 ± 0.12,2.42 ± 0.4,–
"Cc1ccc(C(c2ccc(CN3CCCNCCNCCCNCC3)cc2)c2ccc(CN3CCCNCCNCCCNCC3)cc2)cc1 [Example 8, 4,4′-bis[(1,4,8,11-tetraazacyclotetradecan-1-yl)-methyl]-4″-methyl-1,1′,1″-triphenylmethane octahydrobromide dihydrate]",130 ± 12.4,0.97 ± 0.14,2.05 ± 0.58,–
"Brc1ccc(C(c2ccc(CN3CCCNCCNCCCNCC3)cc2)c2ccc(CN3CCCNCCNCCCNCC3)cc2)cc1 [Example 9, 4,4′-bis[(1,4,8,11-tetraazacyclotetradecan-1-yl)-methyl]-4″-bromo-1,1′,1″-triphenylmethane octahydrobromide dihydrate]",65.8 ± 7.96,0.43 ± 0.07,1.75 ± 0.37,–
"Fc1ccc(C(c2ccc(CN3CCCNCCNCCCNCC3)cc2)c2ccc(CN3CCCNCCNCCCNCC3)cc2)cc1 [Example 10, 4,4′-bis[(1,4,8,11-tetraazacyclotetradecan-1-yl)-methyl]-4″-fluoro-1,1′,1″-triphenylmethane octahydrobromide dihydrate]",91.3 ± 8.75,0.43 ± 0.11,1.22 ± 0.2,–
"Clc1cccc(C(c2ccc(CN3CCCNCCNCCCNCC3)cc2)c2ccc(CN3CCCNCCNCCCNCC3)cc2)c1 [Example 11, 4,4′-bis[(1,4,8,11-tetraazacyclotetradecan-1-yl)-methyl]-3″-chloro-1,1′,1″-triphenylmethane octahydrobromide dihydrate]",67.8 ± 13.3,0.65 ± 0.2,1.48 ± 0.52,–
"c1ccc(C(c2cccc(CN3CCCNCc4cccc(c4)CNCCC3)c2)c2cccc(CN3CCCNCc4cccc(c4)CNCCC3)c2)cc1 [Example 13, 3,3′-bis{[3,7,11-triaza-dicyclo[11.3.1]heptadecan-1(16),13(17),14-trien-7-yl]-methyl}-1,1′,1″-triphenylmethane hexahydrobromide dihydrate]",12.4 ± 3.69,–,1.56 ± 0.48,0.64 ± 0.08
"c1ccc(C(c2cccc(CN3CCCNCc4cccc(n4)CNCCC3)c2)c2cccc(CN3CCCNCc4cccc(n4)CNCCC3)c2)cc1 [Example 19, 3,3′-bis{[3,7,11,17-tetraaza-dicyclo[11.3.1]heptadecan-1(16),13(17),14-trien-7-yl]-methyl}-1,1′,1″-triphenyl methane hexahydrobromide dihydrate]",14.5 ± 1.29,0.44 ± 0.04,0.79 ± 0.02,–
"Clc1cccc(C(c2cccc(CN3CCCNCc4cccc(n4)CNCCC3)c2)c2cccc(CN3CCCNCc4cccc(n4)CNCCC3)c2)c1 [Example 23, 3,3′-bis{[3,7,11,17-tetraaza-dicyclo[11.3.1]heptadecan-1(16),13(17),14-trien-7-yl]-methyl}-3″-chloro-1,1′,1″-triphenylmethane hexahydrobromide dihydrate]",15.3 ± 0.56,0.32 ± 0.05,1.18 ± 0.48,–
"c1ccc(C(c2ccc(CN3CCCNCc4cccc(c4)CNCCC3)cc2)c2ccc(CN3CCCNCc4cccc(c4)CNCCC3)cc2)cc1 [Example 25, 4,4′-bis{[3,7,11-triaza-dicyclo[11.3.1]heptadecan-1(16),13(17),14-trien-7-yl]-methyl}-1,1′1″-triphenylmethane hexahydrobromide dihydrate]",32.5 ± 3.27,0.55 ± 0.09,1.87 ± 0.28,–
"Cc1ccc(C(c2ccc(CN3CCCNCc4cccc(n4)CNCCC3)cc2)c2ccc(CN3CCCNCc4cccc(n4)CNCCC3)cc2)cc1 [Example 31, 4,4′-bis{[3,7,11,17-tetraaza-dicyclo[11.3.1]heptadecan-1(16),13(17),14-trien-7-yl]-methyl}-4″-methyl-1,1′,1″-triphenylmethane hexahydrobromide dihydrate]",39.29 ± 0.08,0.78 ± 0.18,1.07 ± 0.79,–
"Brc1ccc(C(c2ccc(CN3CCCNCc4cccc(n4)CNCCC3)cc2)c2ccc(CN3CCCNCc4cccc(n4)CNCCC3)cc2)cc1 [Example 32, 4,4′-bis{[3,7,11,17-tetraaza-dicyclo[11.3.1]heptadecan-1(16),13(17),14-trien-7-yl]-methyl}-4″-bromo-1,1′,1″-triphenylmethane hexahydrobromide dihydrate]",12.9 ± 0.31,0.15 ± 0.02,0.8 ± 0.23,–
